Test results: patent publication US20260042731A1, “(2,4-DICHLOROPHENOXY)ACETIC ACID ANALOGS” (CORTEVA AGRISCIENCE LLC, priority 2022, published 2026)
Like-named read-outs stand apart in the source and are kept apart here.

What was measured:
[1] = system: Amaranthus rudis (AMATA), tall water hemp; assay: Postemergence herbicide evaluation, growth of Amaranthus rudis (AMATA); type: in vivo; conditions: Amaranthus tuberculatus, post-emergence, read-out: Ave. AMATA, percent reduction in plant size relative to the untreated control; for pest or weed control at 280 g/ha: 280 g ae/ha; for pest or weed control at 560 g/ha: 560 g ae/ha
[2] = system: Ambrosia artemisiifolia (AMBEL), common ragweed; assay: Postemergence herbicide evaluation, growth of Ambrosia artemisiifolia (AMBEL); type: in vivo; conditions: Ambrosia artemisiifolia, post-emergence, read-out: AVE. AMBEL, percent reduction in plant size relative to the untreated control; for pest or weed control at 280 g/ha: 280 g ae/ha; for pest or weed control at 560 g/ha: 560 g ae/ha
[3] = system: Abutilon theophrasti (ABUTH), velvetleaf; assay: Postemergence herbicide evaluation, growth of Abutilon theophrasti (ABUTH); type: in vivo; conditions: Abutilon theophrasti, post-emergence, read-out: AVE. ABUTH, percent reduction in plant size relative to the untreated control; for pest or weed control at 280 g/ha: 280 g ae/ha; for pest or weed control at 560 g/ha: 560 g ae/ha
[4] = system: Chenopodium album (CHEAL), common lambsquarters; assay: Postemergence herbicide evaluation, growth of Chenopodium album (CHEAL); type: in vivo; conditions: Chenopodium album, post-emergence, read-out: Ave. CHEAL, percent reduction in plant size relative to the untreated control; for pest or weed control at 280 g/ha: 280 g ae/ha; for pest or weed control at 560 g/ha: 560 g ae/ha
[5] = system: glyphosate resistant Conyza canadensis (L.) (ERICA), horseweed; assay: Postemergence herbicide evaluation, growth of Conyza canadensis (ERICA); type: in vivo; conditions: Erigeron canadensis, post-emergence, read-out: Ave. ERICA, percent reduction in plant size relative to the untreated control; for pest or weed control at 280 g/ha: 280 g ae/ha; for pest or weed control at 560 g/ha: 560 g ae/ha
[6] = Volatility of compounds measured by thermogravimetric analysis (TGA); type: physicochemical
Corn (ZEAMX) = assay: Greenhouse post-emergence mixture trials, percent visual control; type: in vivo; conditions: ZEAMX, 21 DAA
[7] = system: Common Lambsquarters (CHEAL); assay: as above; type: in vivo; conditions: CHEAL, 21 DAA
[8] = system: weeds ABUTH, AMATA, AMBEL, CHEAL, ERICA; assay: Postemergence herbicide evaluation, overall average % weed control (ABUTH, AMATA, AMBEL, CHEAL, ERICA); type: in vivo; conditions: post-emergence, read-out: Overall Ave % Weed Control; for pest or weed control at 280 g/ha: 280 g ae/ha; for pest or weed control at 560 g/ha: 560 g ae/ha
Velvetleaf (ABUTH) = assay: Greenhouse post-emergence mixture trials, percent visual control; type: in vivo; conditions: ABUTH, 21 DAA

SMILES: O=C(COc1ccc(Cl)cc1Cl)Nc1ccon1 [Compound D2, 2-(2,4-Dichlorophenoxy)-N-(isoxazol-3-yl)acetamide]
- pest or weed control at 280 g/ha ([1]; 168 h, 7 DAA): 70%
- pest or weed control at 560 g/ha ([1]; 168 h, 7 DAA): 78%
- pest or weed control at 280 g/ha ([1]; 336 h, 14 DAA): 85%
- pest or weed control at 560 g/ha ([1]; 336 h, 14 DAA): 92%
- pest or weed control at 280 g/ha ([1]; 504 h, 21 DAA): 94%
- pest or weed control at 560 g/ha ([1]; 504 h, 21 DAA): 97%
- pest or weed control at 280 g/ha ([2]; 168 h, 7 DAA): 68%
- pest or weed control at 560 g/ha ([2]; 168 h, 7 DAA): 73%
- pest or weed control at 280 g/ha ([2]; 336 h, 14 DAA): 89%
- pest or weed control at 560 g/ha ([2]; 336 h, 14 DAA): 97%
- pest or weed control at 280 g/ha ([2]; 504 h, 21 DAA): 100%
- pest or weed control at 560 g/ha ([2]; 504 h, 21 DAA): 97%
- pest or weed control at 280 g/ha ([3]; 168 h, 7 DAA): 78%
- pest or weed control at 560 g/ha ([3]; 168 h, 7 DAA): 88%
- pest or weed control at 280 g/ha ([3]; 336 h, 14 DAA): 83%
- pest or weed control at 560 g/ha ([3]; 336 h, 14 DAA): 93%
- pest or weed control at 280 g/ha ([3]; 504 h, 21 DAA): 80%
- pest or weed control at 560 g/ha ([3]; 504 h, 21 DAA): 99%
- pest or weed control at 280 g/ha ([4]; 168 h, 7 DAA): 70%
- pest or weed control at 560 g/ha ([4]; 168 h, 7 DAA): 73%
- pest or weed control at 280 g/ha ([4]; 336 h, 14 DAA): 73%
- pest or weed control at 560 g/ha ([4]; 336 h, 14 DAA): 88%
- pest or weed control at 280 g/ha ([4]; 504 h, 21 DAA): 78%
- pest or weed control at 560 g/ha ([4]; 504 h, 21 DAA): 97%
- pest or weed control at 280 g/ha ([5]; 168 h, 7 DAA): 68%
- pest or weed control at 560 g/ha ([5]; 168 h, 7 DAA): 73%
- pest or weed control at 280 g/ha ([5]; 336 h, 14 DAA): 88%
- pest or weed control at 560 g/ha ([5]; 336 h, 14 DAA): 94%
- pest or weed control at 280 g/ha ([5]; 504 h, 21 DAA): 91%
- pest or weed control at 560 g/ha ([5]; 504 h, 21 DAA): 99%
- TGA Data (rate of weight loss, volatility) [6]: 0.2 µg/min
- % Control (Corn (ZEAMX); Trial Bridge 1, compound 1120 g ae/ha + Glufosinate 600 g ai or ae/ha): 5%
- plant injury at 560 g/ha (Corn (ZEAMX); Zea mays, post-emergence, 504 h, compound 560 g ae/ha, no mixing partner, Trial Bridge 3): 5%
- % Control ([7]; Trial Bridge 2, compound 560 g ae/ha + Saflufenacil 75 g ai or ae/ha): 100%
- pest or weed control at 280 g/ha ([8]; 168 h, 7 DAA): 71%
- pest or weed control at 560 g/ha ([8]; 168 h, 7 DAA): 77%
- pest or weed control at 280 g/ha ([8]; 336 h, 14 DAA): 83%
- pest or weed control at 560 g/ha ([8]; 336 h, 14 DAA): 92%
- pest or weed control at 280 g/ha ([8]; 504 h, 21 DAA): 88%
- pest or weed control at 560 g/ha ([8]; 504 h, 21 DAA): 98%

SMILES: CC(C)N(C)S(=O)(=O)NC(=O)c1cc(-n2c(=O)cc(C(F)(F)F)n(C)c2=O)c(F)cc1Cl [Saflufenacil, reference compound]
- plant injury at 50 g/ha (Corn (ZEAMX); Zea mays, post-emergence, 504 h, Trial 1 Trt 9, B2 0 g ae/ha, Saflufenacil 50 g ai or ae/ha alone): 50%
- plant injury at 75 g/ha (Corn (ZEAMX); Zea mays, post-emergence, 504 h, Trial 1 Trt 13, B2 0 g ae/ha, Saflufenacil 75 g ai or ae/ha alone): 45%
- pest or weed control at 50 g/ha ([7]; Chenopodium album, post-emergence, 504 h, Trial 1, Trt 9, B2 0 g ae/ha, Saflufenacil 50 g ai or ae/ha alone): 95%
- pest or weed control at 75 g/ha ([7]; Chenopodium album, post-emergence, 504 h, Trial 1, Trt 13, B2 0 g ae/ha, Saflufenacil 75 g ai or ae/ha alone): 98%
- pest or weed control at 25 g/ha (Velvetleaf (ABUTH); Abutilon theophrasti, post-emergence, 504 h, Trial 1, Trt 5, B2 0 g ae/ha, Saflufenacil 25 g ai or ae/ha alone): 100%
- pest or weed control at 50 g/ha (Velvetleaf (ABUTH); Abutilon theophrasti, post-emergence, 504 h, Trial 1, Trt 9, B2 0 g ae/ha, Saflufenacil 50 g ai or ae/ha alone): 100%
- pest or weed control at 75 g/ha (Velvetleaf (ABUTH); Abutilon theophrasti, post-emergence, 504 h, Trial 1, Trt 13, B2 0 g ae/ha, Saflufenacil 75 g ai or ae/ha alone): 100%

SMILES: Cc1nn(-c2cc(NS(C)(=O)=O)c(Cl)cc2Cl)c(=O)n1C(F)F [Sulfentrazone, N-[2,4-dichloro-5-[4-(difluoromethyl)-4,5-dihydro-3-methyl-5-oxo-1H-1,2,4-triazol-1-yl]phenyl]-methane-sulfonamide, reference compound]
- plant injury at 420 g/ha (Corn (ZEAMX); Zea mays, post-emergence, 504 h, Trial 1 Trt 25, B2 0 g ae/ha, Sulfentrazone 420 g ai or ae/ha alone): 25%
- plant injury at 140 g/ha (Corn (ZEAMX); Zea mays, post-emergence, 504 h, Sulfentrazone 140 g ai or ae/ha alone (B2 rate 0), Trial Bridge 3): 40%
- plant injury at 210 g/ha (Corn (ZEAMX); Zea mays, post-emergence, 504 h, Sulfentrazone 210 g ai or ae/ha alone (B2 rate 0), Trial Bridge 3): 40%
- pest or weed control at 140 g/ha ([7]; Chenopodium album, post-emergence, 504 h, Trial Bridge 3, Sulfentrazone 140 g ai/ha alone (B2 rate 0)): 99%
- pest or weed control at 210 g/ha ([7]; Chenopodium album, post-emergence, 504 h, Trial Bridge 3, Sulfentrazone 210 g ai/ha alone (B2 rate 0)): 88%
- pest or weed control at 420 g/ha ([7]; Chenopodium album, post-emergence, 504 h, Trial Bridge 3, Sulfentrazone 420 g ai/ha alone (B2 rate 0)): 100%
- pest or weed control at 210 g/ha ([7]; Chenopodium album, post-emergence, 504 h, Trial 1, Trt 21, B2 0 g ae/ha, Sulfentrazone 210 g ai or ae/ha alone): 100%
- pest or weed control at 420 g/ha ([7]; Chenopodium album, post-emergence, 504 h, Trial 1, Trt 25, B2 0 g ae/ha, Sulfentrazone 420 g ai or ae/ha alone): 99%
- % Control (Velvetleaf (ABUTH); Sulfentrazone 210 g ai/ha alone (compound rate 0 g ae/ha), Trial Bridge 3): 100%
- pest or weed control at 140 g/ha (Velvetleaf (ABUTH); Abutilon theophrasti, post-emergence, 504 h, Sulfentrazone 140 g ai/ha alone (compound rate 0 g ae/ha), Trial Bridge 3): 98%
- pest or weed control at 210 g/ha (Velvetleaf (ABUTH); Abutilon theophrasti, post-emergence, 504 h, Sulfentrazone 210 g ai/ha alone (compound rate 0 g ae/ha), Trial Bridge 3): 100%
- pest or weed control at 216 g/ha (Velvetleaf (ABUTH); Abutilon theophrasti, post-emergence, 504 h, Sulfentrazone 216 g ai/ha alone (compound rate 0 g ae/ha), Trial Bridge 3): 8%
- pest or weed control at 420 g/ha (Velvetleaf (ABUTH); Abutilon theophrasti, post-emergence, 504 h, Trial 1, Trt 25, B2 0 g ae/ha, Sulfentrazone 420 g ai or ae/ha alone): 80%
